Data as given in ChEMBL document CHEMBL1201862, “PubChem BioAssay data set” (2004).
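Protocol summary: plate cells (96-well), add compound at 5 concentrations, incubate 48 h, interpolate endpoints linearly. GI50 marks 50% less growth.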 Calls of active or inactive are those of the source. Rule as the data show it: active = GI50 up to about 1.1 µM and inactive = higher.

Legend:
Assay in all cases: NCI anticancer screen, dose series, 48 h
[1] = tested on: UO-31
[2] = tested on: 786-0
[3] = tested on: KM12
[4] = tested on: SK-OV-3
[5] = tested on: A549
[6] = tested on: MOLT-4
[7] = tested on: SR
[8] = tested on: DLD-1
[9] = tested on: SF-539
[10] = tested on: SW-620
[11] = tested on: UACC-257
[12] = tested on: SF-295
[13] = tested on: RPMI-8226
[14] = tested on: CCRF-CEM
[15] = tested on: SNB-75
[16] = tested on: KM-20L2
[17] = tested on: A498
[18] = tested on: SK-MEL-5

SMILES | GI50 [1] | GI50 [2] | GI50 [3] | GI50 [4] | GI50 [5] | GI50 [6] | GI50 [7] | GI50 [8] | GI50 [9] | GI50 [10] | GI50 [11] | GI50 [12] | GI50 [13] | GI50 [14] | GI50 [15] | GI50 [16] | GI50 [17] | GI50 [18]
COc1ccc(C(=O)C(c2ccc(OC)cc2)C2(O)C(=O)Nc3ccccc32)cc1 (stereo not drawn) | > 100 µM (inactive) | > 100 µM (inactive) | > 100 µM (inactive) | > 100 µM (inactive) | > 100 µM (inactive) | > 100 µM (inactive) | > 100 µM (inactive) | > 100 µM (inactive) | > 100 µM (inactive) | > 100 µM (inactive) | > 100 µM (inactive) | > 100 µM (inactive) | > 100 µM (inactive) | > 100 µM (inactive) | 67.5 µM (inactive) | > 100 µM (inactive) |  | 
CCc1cccc(C)c1NC(=O)C(=O)CC(=O)c1ccc(Cl)s1 | > 100 µM (inactive) | > 100 µM (inactive) | > 100 µM (inactive) | > 100 µM (inactive) | > 100 µM (inactive) | > 100 µM (inactive) | > 100 µM (inactive) | > 100 µM (inactive) | > 100 µM (inactive) | > 100 µM (inactive) | > 100 µM (inactive) | > 100 µM (inactive) |  | > 100 µM (inactive) | > 100 µM (inactive) | > 100 µM (inactive) | > 100 µM (inactive) | 
COC(=O)c1cccc2c3ccccc3c3ccccc3c12 | 39.9 µM (inactive) | 42.8 µM (inactive) | 39.5 µM (inactive) | 37.2 µM (inactive) | 44.5 µM (inactive) | 24.5 µM (inactive) | 36.8 µM (inactive) | 65.9 µM (inactive) |  | 43.5 µM (inactive) | 38.3 µM (inactive) | 26.6 µM (inactive) |  | 27.5 µM (inactive) | 26.9 µM (inactive) | 41.8 µM (inactive) | 20.2 µM (inactive) | 30.1 µM (inactive)
Cc1cccc2cc3cccc(C(=O)NCCN(C)C)c3nc12 | 0.083 µM (active) | 0.129 µM (active) | 0.397 µM (active) | 0.138 µM (active) | 0.0171 µM (active) | < 0.01 µM (active) | 0.0224 µM (active) | 0.119 µM (active) | 0.129 µM (active) | 0.0394 µM (active) | 0.245 µM (active) | 0.131 µM (active) |  | 0.0575 µM (active) | 0.235 µM (active) | 0.242 µM (active) | 0.045 µM (active) | 0.173 µM (active)
S=C1NCCN1 | > 100 µM (inactive) | > 100 µM (inactive) | > 100 µM (inactive) | > 100 µM (inactive) | > 100 µM (inactive) | > 100 µM (inactive) | > 100 µM (inactive) | > 100 µM (inactive) | > 100 µM (inactive) | > 100 µM (inactive) | > 100 µM (inactive) | > 100 µM (inactive) | > 100 µM (inactive) | > 100 µM (inactive) | > 100 µM (inactive) | > 100 µM (inactive) |  | > 100 µM (inactive)
Cc1cccc(C(C)(C)C)c1NC(=O)CCl | > 100 µM (inactive) | > 100 µM (inactive) | > 100 µM (inactive) | > 100 µM (inactive) | > 100 µM (inactive) | > 100 µM (inactive) | > 100 µM (inactive) | > 100 µM (inactive) | > 100 µM (inactive) | > 100 µM (inactive) | > 100 µM (inactive) | > 100 µM (inactive) |  | > 100 µM (inactive) | > 100 µM (inactive) | > 100 µM (inactive) | > 100 µM (inactive) | > 100 µM (inactive)
CC(=O)Nc1ccc(/C=c2\sc3nnc(/C=C/c4ccccc4)n3c2=O)cc1 | > 50 µM (inactive) | > 50 µM (inactive) | > 50 µM (inactive) | > 50 µM (inactive) | > 50 µM (inactive) | > 50 µM (inactive) |  | > 50 µM (inactive) | > 50 µM (inactive) | > 50 µM (inactive) | > 50 µM (inactive) | > 50 µM (inactive) | > 50 µM (inactive) | > 50 µM (inactive) | > 50 µM (inactive) | > 50 µM (inactive) | > 50 µM (inactive) | > 50 µM (inactive)
CCOC(=O)c1cc(C(=O)O)c(=O)n2c1[nH]c1ccccc12 | 23.9 µM (inactive) | > 100 µM (inactive) | > 100 µM (inactive) | 78.7 µM (inactive) | 60.8 µM (inactive) | > 100 µM (inactive) |  | 99.8 µM (inactive) | 36.4 µM (inactive) | > 100 µM (inactive) | > 100 µM (inactive) | > 100 µM (inactive) | 46.3 µM (inactive) | > 100 µM (inactive) | 31.8 µM (inactive) | > 100 µM (inactive) | > 100 µM (inactive) | 60.8 µM (inactive)
Cn1c(=O)c(C(c2ccccc2)c2c(O)c3ccccc3n(C)c2=O)c(O)c2ccccc21 | > 100 µM (inactive) | > 100 µM (inactive) | > 100 µM (inactive) | > 100 µM (inactive) | > 100 µM (inactive) | 45.3 µM (inactive) | 45.5 µM (inactive) | 88.7 µM (inactive) | > 100 µM (inactive) | > 100 µM (inactive) | > 100 µM (inactive) | > 100 µM (inactive) | > 100 µM (inactive) |  | 38.1 µM (inactive) | > 100 µM (inactive) |  | > 100 µM (inactive)
CCn1c2ccccc2c2ccc3c(c21)C(=O)c1ccccc1C3=O | > 100 µM (inactive) | > 100 µM (inactive) |  | > 100 µM (inactive) | > 100 µM (inactive) | 61.5 µM (inactive) | 10.4 µM (inactive) | > 100 µM (inactive) | > 100 µM (inactive) | > 100 µM (inactive) | > 100 µM (inactive) | 91.2 µM (inactive) | > 100 µM (inactive) | 74.3 µM (inactive) | > 100 µM (inactive) | > 100 µM (inactive) | > 100 µM (inactive) | 76.6 µM (inactive)
C=C1CC[C@@H]2C(C)(C)C(O)CCC2(C)C1COc1ccc2ccc(=O)oc2c1 (stereo partly drawn) | 16 µM (inactive) | 21.5 µM (inactive) | 15.6 µM (inactive) | 23.4 µM (inactive) | 17.2 µM (inactive) | 14.7 µM (inactive) | 23.6 µM (inactive) | 15.7 µM (inactive) | 16.8 µM (inactive) | 22.1 µM (inactive) | 18.6 µM (inactive) | 16.2 µM (inactive) | 12.4 µM (inactive) | 13.4 µM (inactive) | 18 µM (inactive) | 19.1 µM (inactive) | 19.9 µM (inactive) | 
Cc1ccc(/C=C/C(=O)C(C)C)cc1 | 54.1 µM (inactive) | 55 µM (inactive) | 48.8 µM (inactive) | 74.3 µM (inactive) | > 100 µM (inactive) | 30.2 µM (inactive) | 31.8 µM (inactive) | 51.9 µM (inactive) |  | 47.5 µM (inactive) | 53.6 µM (inactive) | 38.3 µM (inactive) | 27.9 µM (inactive) | 22.9 µM (inactive) | 35.2 µM (inactive) | 14.2 µM (inactive) | > 100 µM (inactive) | 50.9 µM (inactive)
CN(C)CCS/C(=N\c1ccccc1)N1CCCCC1 | 20.3 µM (inactive) | 16.3 µM (inactive) | 16.5 µM (inactive) | 75.7 µM (inactive) | 91.8 µM (inactive) | 19 µM (inactive) | 18.6 µM (inactive) | 17.3 µM (inactive) | 20.2 µM (inactive) | 17.8 µM (inactive) | 14.7 µM (inactive) | 83 µM (inactive) | 22.3 µM (inactive) | 23.8 µM (inactive) | 21.8 µM (inactive) | 17.2 µM (inactive) |  | 16.1 µM (inactive)
Cc1cccc(NC(=O)C(=O)C(C2OC(=O)c3ccccc32)[N+](=O)[O-])c1C (stereo not drawn) | 9.53 µM (inactive) | 10.2 µM (inactive) | 12.8 µM (inactive) | 13.6 µM (inactive) | 18.3 µM (inactive) | 2.99 µM (inactive) | 3.13 µM (inactive) | 6.43 µM (inactive) | 18.9 µM (inactive) | 5.57 µM (inactive) | 5.61 µM (inactive) | 14.9 µM (inactive) |  | 3.52 µM (inactive) | 5.51 µM (inactive) | 18.4 µM (inactive) | 15.7 µM (inactive) | 6.53 µM (inactive)
Cc1ccc(/C=C/C(=O)c2ccc(Cl)c(Cl)c2)cc1 | > 100 µM (inactive) | > 100 µM (inactive) | > 100 µM (inactive) | > 10 µM (inactive) | > 100 µM (inactive) | > 100 µM (inactive) | > 100 µM (inactive) | > 100 µM (inactive) |  | > 100 µM (inactive) | > 100 µM (inactive) | > 100 µM (inactive) |  | > 100 µM (inactive) | > 100 µM (inactive) | > 100 µM (inactive) | > 100 µM (inactive) | > 100 µM (inactive)
Cc1cc(Br)cc(C)c1NC(=O)C(=O)CC(=O)c1sc(-n2nc(-c3ccccc3)cc2-c2ccccc2)nc1C | > 100 µM (inactive) | > 100 µM (inactive) | > 100 µM (inactive) | > 100 µM (inactive) | > 100 µM (inactive) | > 100 µM (inactive) | > 100 µM (inactive) | > 100 µM (inactive) |  | > 100 µM (inactive) | > 100 µM (inactive) | > 100 µM (inactive) | > 100 µM (inactive) | > 100 µM (inactive) | 49.9 µM (inactive) | > 100 µM (inactive) | > 100 µM (inactive) | 
CN(C)c1ncnc2c1Cc1ccccc1C(=O)N2C | > 100 µM (inactive) | > 100 µM (inactive) | > 100 µM (inactive) | > 100 µM (inactive) | > 100 µM (inactive) | > 100 µM (inactive) | > 100 µM (inactive) | > 100 µM (inactive) | > 100 µM (inactive) | > 100 µM (inactive) | > 100 µM (inactive) | > 100 µM (inactive) | > 100 µM (inactive) | > 100 µM (inactive) | > 100 µM (inactive) | > 100 µM (inactive) |  | > 100 µM (inactive)
